In assay [1] the target is Mcl-1 protein (UniProtKB primary accession number: Q07820) (Homo sapiens, UniProt Q07820). As to the kind of experiment: Inhibition of Mcl-1 by fluorescence polarisation, Method 1. Type of assay: binding. Conditions: fluorescence polarisation test; Method 2 values are underlined in the patent (underlining not visible here); read-out: IC50 (M) Mcl-1 FP. The essentials:
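Binding was measured as fluorescence polarisation of a fluorescein-labelled ligand (1 nM) displaced from Mcl-1 (5 nM), both final. Compounds ran as 11-point series with final DMSO at 5%.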

For assay [2], the system named is H929 multiple myeloma tumour line. Kind of assay: In vitro cytotoxicity, Microculture Tetrazolium Assay. Particulars: Homo sapiens, NCI-H929, 48 h, H929 cells, 48 hours exposure, MTT; read-out: IC50 (μM) MTT H929. Type of assay: cell-based. As to the method: The cytotoxicity studies were carried out on the H929 multiple myeloma tumour line.
The cells are distributed onto microplates and exposed to the test compounds for 48 hours.

Sequence of Mcl-1 protein (Q07820 whole entry): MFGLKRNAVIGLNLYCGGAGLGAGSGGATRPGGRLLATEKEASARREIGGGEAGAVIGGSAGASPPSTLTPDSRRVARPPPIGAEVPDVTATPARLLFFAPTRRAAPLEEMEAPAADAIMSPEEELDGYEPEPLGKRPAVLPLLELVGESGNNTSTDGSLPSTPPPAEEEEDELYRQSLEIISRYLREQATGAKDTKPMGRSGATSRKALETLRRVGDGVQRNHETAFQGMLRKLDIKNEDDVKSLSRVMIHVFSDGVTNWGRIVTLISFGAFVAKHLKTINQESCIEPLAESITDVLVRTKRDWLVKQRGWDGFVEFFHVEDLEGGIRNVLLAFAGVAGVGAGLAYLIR

In the case of `Cc1c(-c2c(-c3ccc(F)cc3)sc3ncnc(OC(Cc4ccccc4OCc4ccnc(-c5ccc(Cl)cc5)n4)C(=O)O)c23)ccc(OCCN2CCN(C)CC2)c1Cl` [Example 27, (2R)-2-{[(5Sa)-5-{3-chloro-2-methyl-4-[2-(4-methylpiperazin-1-yl)ethoxy]phenyl}-6-(4-fluorophenyl)thieno[2,3-d]pyrimidin-4-yl]oxy}-3-(2-{[2-(4-chlorophenyl)pyrimidin-4-yl]methoxy}phenyl)propanoic acid], the values for the IC50 in assay [1] and in assay [2] were 6.6e-09 M and 0.045 µM, respectively.

Take `Cc1c(-c2c(-c3ccc(F)cc3)sc3ncnc(OC(Cc4ccccc4OCc4ccnc(C5CCCC5)n4)C(=O)O)c23)ccc(OCCN2CCN(C)CC2)c1Cl` [Example 28, (2R)-2-{[(5Sa)-5-{3-chloro-2-methyl-4-[2-(4-methylpiperazin-1-yl)ethoxy]phenyl}-6-(4-fluorophenyl)thieno[2,3-d]pyrimidin-4-yl]oxy}-3-{2-[(2-cyclopentylpyrimidin-4-yl)methoxy]phenyl}propanoic acid]: the concentration for half-maximal inhibition (IC50) in assay [1] was determined as 4.5e-09 M; in assay [2] it was 0.021 µM.

Regarding `Cc1c(-c2c(-c3ccc(F)cc3)sc3ncnc(OC(Cc4ccccc4OCc4ccnc(-c5ccccc5)n4)C(=O)O)c23)ccc(OCCN2CCN(C)CC2)c1Cl` [Example 29, (2R)-2-{[(5Sa)-5-{3-chloro-2-methyl-4-[2-(4-methylpiperazin-1-yl)ethoxy]phenyl}-6-(4-fluorophenyl)thieno[2,3-d]pyrimidin-4-yl]oxy}-3-{2-[(2-phenylpyrimidin-4-yl)methoxy]phenyl}propanoic acid], the IC50 in assay [1] stood at 3.3e-09 M; in assay [2], 0.007 µM.

As to `Cc1c(-c2c(-c3ccc(F)cc3)sc3ncnc(OC(Cc4ccccc4OCc4ccnc(-c5cccs5)n4)C(=O)O)c23)ccc(OCCN2CCN(C)CC2)c1Cl` [Example 33, (2R)-2-{[(5Sa)-5-{3-chloro-2-methyl-4-[2-(4-methylpiperazin-1-yl)ethoxy]phenyl}-6-(4-fluorophenyl)thieno[2,3-d]pyrimidin-4-yl]oxy}-3-(2-{[2-(thiophen-2-yl)pyrimidin-4-yl]methoxy}phenyl)propanoic acid], the IC50 in assay [1] came out at 7.8e-09 M; in assay [2], 0.017 µM.

As to `Cc1c(-c2c(-c3ccc(F)cc3)sc3ncnc(OC(Cc4ccccc4OCc4ccnc(-c5ccoc5)n4)C(=O)O)c23)ccc(OCCN2CCN(C)CC2)c1Cl` [Example 35, (2R)-2-{[(5Sa)-5-{3-chloro-2-methyl-4-[2-(4-methylpiperazin-1-yl)ethoxy]phenyl}-6-(4-fluorophenyl)thieno[2,3-d]pyrimidin-4-yl]oxy}-3-(2-{[2-(furan-3-yl)pyrimidin-4-yl]methoxy}phenyl)propanoic acid], the values for the IC50 in assay [1] and in assay [2] were 4.8e-09 M and 0.027 µM, respectively.

For the compound `Cc1c(-c2c(-c3ccc(F)cc3)sc3ncnc(OC(Cc4ccccc4OCc4ccnc(-c5nccs5)n4)C(=O)O)c23)ccc(OCCN2CCN(C)CC2)c1Cl` [Example 36, (2R)-2-{[(5Sa)-5-{3-chloro-2-methyl-4-[2-(4-methylpiperazin-1-yl)ethoxy]phenyl}-6-(4-fluorophenyl)thieno[2,3-d]pyrimidin-4-yl]oxy}-3-(2-{[2-(1,3-thiazol-2-yl)pyrimidin-4-yl]methoxy}phenyl)propanoic acid], the concentration for half-maximal inhibition (IC50) in assay [1] was 1.1e-08 M; in assay [2] it was 0.015 µM.

On to `CCc1nccc(COc2ccccc2CC(Oc2ncnc3sc(-c4ccc(F)cc4)c(-c4ccc(OCCN5CCN(C)CC5)c(Cl)c4C)c23)C(=O)O)n1` [Example 37, (2R)-2-{[(5Sa)-5-{3-chloro-2-methyl-4-[2-(4-methylpiperazin-1-yl)ethoxy]phenyl}-6-(4-fluorophenyl)thieno[2,3-d]pyrimidin-4-yl]oxy}-3-{2-[(2-ethylpyrimidin-4-yl)methoxy]phenyl}propanoic acid], for which the results for the concentration for half-maximal inhibition (IC50) in assay [1] and in assay [2] were 6e-09 M and 0.014 µM, respectively.

As for `Cc1c(-c2c(-c3ccc(F)cc3)sc3ncnc(OC(Cc4ccccc4OCc4ccnc(CC(C)C)n4)C(=O)O)c23)ccc(OCCN2CCN(C)CC2)c1Cl` [Example 38, (2R)-2-{[(5Sa)-5-{3-chloro-2-methyl-4-[2-(4-methylpiperazin-1-yl)ethoxy]phenyl}-6-(4-fluorophenyl)thieno[2,3-d]pyrimidin-4-yl]oxy}-3-(2-{[2-(2-methylpropyl)pyrimidin-4-yl]methoxy}phenyl)propanoic acid], the 50% inhibitory concentration (IC50) came out at 1.9e-09 M in assay [1] and 0.016 µM in assay [2].

On to `Cc1c(-c2c(-c3ccc(F)cc3)sc3ncnc(OC(Cc4ccccc4OCc4ccnc(CC5CC5)n4)C(=O)O)c23)ccc(OCCN2CCN(C)CC2)c1Cl` [Example 39, (2R)-2-{[(5Sa)-5-{3-chloro-2-methyl-4-[2-(4-methylpiperazin-1-yl)ethoxy]phenyl}-6-(4-fluorophenyl)thieno[2,3-d]pyrimidin-4-yl]oxy}-3-(2-{[2-(cyclopropylmethyl)pyrimidin-4-yl]methoxy}phenyl)propanoic acid], for which the IC50 in assay [1] was 4.8e-09 M; in assay [2], 0.015 µM.

With `Cc1c(-c2c(-c3ccc(F)cc3)sc3ncnc(OC(Cc4ccccc4OCc4ccnc(Cc5ccccc5)n4)C(=O)O)c23)ccc(OCCN2CCN(C)CC2)c1Cl` [Example 40, (2R)-3-{2-[(2-benzylpyrimidin-4-yl)methoxy]phenyl}-2-{[(5Sa)-5-{3-chloro-2-methyl-4-[2-(4-methylpiperazin-1-yl)ethoxy]phenyl}-6-(4-fluorophenyl)thieno[2,3-d]pyrimidin-4-yl]oxy}propanoic acid], the IC50 in assay [1] came to 5.6e-09 M; in assay [2] it was 0.008 µM.

For the compound `CCCCc1nccc(COc2ccccc2CC(Oc2ncnc3sc(-c4ccc(F)cc4)c(-c4ccc(OCCN5CCN(C)CC5)c(Cl)c4C)c23)C(=O)O)n1` [Example 42, (2R)-3-{2-[(2-butylpyrimidin-4-yl)methoxy]phenyl}-2-{[(5Sa)-5-{3-chloro-2-methyl-4-[2-(4-methylpiperazin-1-yl)ethoxy]phenyl}-6-(4-fluorophenyl)thieno[2,3-d]pyrimidin-4-yl]oxy}propanoic acid], the IC50 in assay [1] came out at 3.2e-09 M; in assay [2] it was 0.012 µM.

For the compound `Cc1c(-c2c(-c3ccc(F)cc3)sc3ncnc(OC(Cc4ccccc4OCc4ccnc(CCN(C)C)n4)C(=O)O)c23)ccc(OCCN2CCN(C)CC2)c1Cl` [Example 43, (2R)-2-{[(5Sa)-5-{3-chloro-2-methyl-4-[2-(4-methylpiperazin-1-yl)ethoxy]phenyl}-6-(4-fluorophenyl)thieno[2,3-d]pyrimidin-4-yl]oxy}-3-[2-({2-[2-(dimethylamino)ethyl]pyrimidin-4-yl}methoxy)phenyl]propanoic acid], the results for the IC50 in assay [1] and in assay [2] were 9.8e-09 M and 0.465 µM, respectively.

On to `Cc1c(-c2c(-c3ccc(F)cc3)sc3ncnc(OC(Cc4ccccc4OCc4ccnc(COc5ccccc5)n4)C(=O)O)c23)ccc(OCCN2CCN(C)CC2)c1Cl` [Example 46, (2R)-2-{[(5Sa)-5-{3-chloro-2-methyl-4-[2-(4-methylpiperazin-1-yl)ethoxy]phenyl}-6-(4-fluorophenyl)thieno[2,3-d]pyrimidin-4-yl]oxy}-3-(2-{[2-(phenoxymethyl)pyrimidin-4-yl]methoxy}phenyl)propanoic acid], for which the IC50 in assay [1] is 7.3e-09 M; in assay [2], 0.024 µM.

On to `COCCN(C)c1nccc(COc2ccccc2CC(Oc2ncnc3sc(-c4ccc(F)cc4)c(-c4ccc(OCCN5CCN(C)CC5)c(Cl)c4C)c23)C(=O)O)n1` [Example 48, (2R)-2-{[(5Sa)-5-{3-chloro-2-methyl-4-[2-(4-methylpiperazin-1-yl)ethoxy]phenyl}-6-(4-fluorophenyl)thieno[2,3-d]pyrimidin-4-yl]oxy}-3-[2-({2-[(2-methoxyethyl)(methyl)amino]pyrimidin-4-yl}methoxy)phenyl]propanoic acid], for which the IC50 in assay [1] was found to be 1.1e-08 M; in assay [2], 0.122 µM.

With `Cc1c(-c2c(-c3ccc(F)cc3)sc3ncnc(OC(Cc4ccccc4OCc4ccnc(N5CCN(C)CC5)n4)C(=O)O)c23)ccc(OCCN2CCN(C)CC2)c1Cl` [Example 50, (2R)-2-{[(5Sa)-5-{3-chloro-2-methyl-4-[2-(4-methylpiperazin-1-yl)ethoxy]phenyl}-6-(4-fluorophenyl)thieno[2,3-d]pyrimidin-4-yl]oxy}-3-(2-{[2-(4-methylpiperazin-1-yl)pyrimidin-4-yl]methoxy}phenyl)propanoic acid], the half-inhibitory concentration (IC50) came to 7.6e-09 M in assay [1] and 0.076 µM in assay [2].

Consider `Cc1c(-c2c(-c3ccc(F)cc3)sc3ncnc(OC(Cc4ccccc4OCc4ccnc(-n5ccnn5)n4)C(=O)O)c23)ccc(OCCN2CCN(C)CC2)c1Cl` [Example 51, (2R)-2-{[(5Sa)-5-{3-chloro-2-methyl-4-[2-(4-methylpiperazin-1-yl)ethoxy]phenyl}-6-(4-fluorophenyl)thieno[2,3-d]pyrimidin-4-yl]oxy}-3-(2-{[2-(1H-1,2,3-triazol-1-yl)pyrimidin-4-yl]methoxy}phenyl)propanoic acid], for which the 50% inhibitory concentration (IC50) turned out to be 3.5e-09 M in assay [1] and 0.038 µM in assay [2].

Consider `Cc1c(-c2c(-c3ccc(F)cc3)sc3ncnc(OC(Cc4ccccc4OCc4ccnc(Oc5ccccc5)n4)C(=O)O)c23)ccc(OCCN2CCN(C)CC2)c1Cl` [Example 56, (2R)-2-{[(5Sa)-5-{3-chloro-2-methyl-4-[2-(4-methylpiperazin-1-yl)ethoxy]phenyl}-6-(4-fluorophenyl)thieno[2,3-d]pyrimidin-4-yl]oxy}-3-{2-[(2-phenoxypyrimidin-4-yl)methoxy]phenyl}propanoic acid], for which the half-inhibitory concentration (IC50) came out at 4.4e-09 M in assay [1] and 0.022 µM in assay [2].

The values above are taken from US9670227B2, “Thienopyrimidine derivatives, a process for their preparation and pharmaceutical compositions containing them” (LES LABORATOIRES SERVIER, priority 2013, dated 2017).
